Reference: US7250295B2 (Board of Trustees of Michigan State University, priority 1999, dated 2007)

Columns and labels:
[1] = test system: mAB 6F5; format: binding, mouse; conditions: read-out: 50% inhibitory concentration
[2] = test system: mouse bone marrow cells
[3] = test system: protein synthesis in vitro with rabbit reticulocyte lysate; format: biochemical
[4] = test system: antibody obtained from C430-BSA-immunized mice; test: CI-ELISA: antisera of C430-BSA-immunized mice on immobilized DONPEP.2 phage; format: binding
Procedure: The strips were washed and blocked as described for the CD-ELISA. Various concentrations of DON (0 to 10,000 ηg/ml in 1% methanol-PBS), 50 μl/well, was added to the wells, and then 50 μl of anti-DON mAB 6F5 (10 μg/ml in 10% milk-PBS) was added to each well. The wells were incubated at 37° C. for 1 hour. Then the wells were washed six times with PBS-T, and the amounts of bound anti-DON mAB 6F5 were determined by incubation with goat anti-mouse IgG-HRP conjugate (diluted 1:2,000 with 10% milk-PBS) at 37° C. for 1 hour. The amounts of bound enzyme were determined as described above.
Synthetic peptide C430 was conjugated to BSA with a m-maleimidobenzoyl-N-hydroxysulfosuccinimide ester (sulfo-MBS) cross-linker. The C430-BSA conjugate, at a molar ratio of peptide C430 to the carrier protein BSA of about 29:1, was used to inject 7-week-old BALB/c female mice intraperitoneally or 6-month-old New Zealand white rabbits subcutaneously. The initial injections used for the mice contained 100 to 200 μg of C430-BSA conjugate in 200 μl of saline-Freund's complete adjuvant (1:1). These injections were followed at 3-week intervals by booster injections consisting of 100 to 200 μg of conjugate in 200 μl of saline-Freund's incomplete adjuvant (1:1). […]

[5] = test system: mAB 6F5; test: Binding of nivalenol to mAB 6F5; parameters: species or system mouse

Compound	IC50 [1]	cell death ([2]; B6C3F1, mouse)	effect on new protein synthesis [3]	inhibition of antisera binding to immobilized phage-displayed peptide ([4]; free competitor in solution)	affinity for mAB 6F5 relative to DON [5]	effect on cell viability when combined with DON [2]	effect on viability of bone marrow cells [2]	new protein synthesis with DON mixed with equimolar C430 [3]	IC50 ([4]; antiserum after the fourth injection of C430-BSA, FIG. 6, read-out: concentration giving 50% inhibition of antiserum binding to immobilized phage-displayed peptide)
CC1=C[C@H]2O[C@@H]3[C@H](O)C[C@](C)([C@@]2(CO)[C@H](O)C1=O)[C@]31CO1 [DON, 12,13-epoxy-3,7,15-trichothec-9-en-8-one, reference compound]	3.4 µM	40-60%	significantly inhibited new protein synthesis	not inhibited by free DON					
CC1=C[C@H]2O[C@@H]3[C@H](O)[C@@H](O)[C@](C)([C@@]2(CO)[C@H](O)C1=O)[C@]31CO1 [Nivalenol, nivalenol]					slightly less affinity than DON				
H-SWGPFPFGGGSC-OH [C430, NH2-SWGPFPFGGGSC-COOH]			had no such inhibitory effect			did not significantly increase or decrease the cell viability caused by DON	did not have any adverse effect on the viability	new protein synthesis was not inhibited	0.39 µM
